Assay results taken from ChEMBL document CHEMBL4311944, “Discovery of 3-Oxabicyclo[4.1.0]heptane, a Non-nitrogen Containing Morpholine Isostere, and Its Application in Novel Inhibitors of the PI3K-AKT-mTOR Pathway” (J Med Chem, 2019).
Values after ≈ are worked out from the molar mass of the structure shown.

What was measured:
[1] = Inhibition of ligand binding to mTORC1/mTORC2 in human HuT78 cells after 2 hrs by kinobead competition binding assay; assay type: cell-based
[2] = biological target: T1, Phosphatidylinositol 4,5-bisphosphate 3-kinase catalytic subunit delta isoform (Homo sapiens, UniProt O00329); assay: Inhibition of PI3Kdelta (unknown origin) using PIP2 as substrate preincubated for 15 mins followed by substrate addition and measured after 1 hr by HTRF assay
T1 sequence (O00329 whole entry): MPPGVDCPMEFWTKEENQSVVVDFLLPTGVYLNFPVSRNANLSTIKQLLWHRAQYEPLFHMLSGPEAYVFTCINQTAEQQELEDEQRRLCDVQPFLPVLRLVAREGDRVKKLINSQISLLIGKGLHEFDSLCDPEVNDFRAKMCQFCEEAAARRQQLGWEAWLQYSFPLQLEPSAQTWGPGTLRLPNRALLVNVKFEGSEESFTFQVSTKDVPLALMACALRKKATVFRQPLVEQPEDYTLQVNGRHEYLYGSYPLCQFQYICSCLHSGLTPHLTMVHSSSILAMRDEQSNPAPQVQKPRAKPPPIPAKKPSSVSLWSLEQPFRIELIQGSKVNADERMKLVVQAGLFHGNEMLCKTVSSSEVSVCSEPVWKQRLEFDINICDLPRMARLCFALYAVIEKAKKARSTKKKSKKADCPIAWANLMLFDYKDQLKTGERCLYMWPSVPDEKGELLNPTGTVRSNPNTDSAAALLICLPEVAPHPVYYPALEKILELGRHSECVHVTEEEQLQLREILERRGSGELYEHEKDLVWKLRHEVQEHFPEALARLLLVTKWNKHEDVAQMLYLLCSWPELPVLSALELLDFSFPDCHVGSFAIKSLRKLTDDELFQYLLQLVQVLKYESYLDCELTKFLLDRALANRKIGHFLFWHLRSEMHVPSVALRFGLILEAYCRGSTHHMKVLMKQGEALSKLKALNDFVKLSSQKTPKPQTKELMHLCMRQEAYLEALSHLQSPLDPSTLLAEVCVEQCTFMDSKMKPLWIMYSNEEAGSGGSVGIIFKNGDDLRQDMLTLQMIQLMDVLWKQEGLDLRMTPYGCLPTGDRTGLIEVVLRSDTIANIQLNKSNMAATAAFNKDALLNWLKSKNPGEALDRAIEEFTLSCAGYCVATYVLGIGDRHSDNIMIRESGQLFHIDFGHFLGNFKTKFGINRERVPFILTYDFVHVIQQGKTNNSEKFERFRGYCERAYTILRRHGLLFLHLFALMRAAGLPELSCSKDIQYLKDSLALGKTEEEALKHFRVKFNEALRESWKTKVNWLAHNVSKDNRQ

[3] = Kinetic solubility of the compound in pH 7.4 phosphate buffered saline measured after 1 hr; assay type: physicochemical; settings: read-out: Kinetic_solubility
[4] = Lipophilicity, logP of the compound by reversed phase column chromatography; assay type: physicochemical
[5] = Inhibition of PI3K/AKT/mTOR in human lung fibroblasts assessed as reduction in AKT phosphorylation at serine473 residue preincubated for 1 hr followed by PDGF-BB stimulation and measured after 10 mins by electrochemiluminescence method
[6] = biological target: Phosphatidylinositol 4,5-bisphosphate 3-kinase catalytic subunit alpha isoform (Homo sapiens, UniProt P42336)
Description: Inhibition of PI3Kalpha (unknown origin) using PIP2 as substrate preincubated for 15 mins followed by substrate addition and measured after 1 hr by HTRF assay

[7] = Intrinsic clearance in rat hepatocytes; assay type: ADME, cell-based, Hepatocyte
[8] = Intrinsic clearance in human hepatocytes; assay type: ADME, cell-based, Hepatocyte
[9] = Intrinsic clearance in rat microsomes; assay type: ADME, Microsome
[10] = Intrinsic clearance in human microsomes; assay type: ADME, Microsome

Sequence of Phosphatidylinositol 4,5-bisphosphate 3-kinase catalytic subunit alpha isoform (P42336 whole entry, canonical isoform): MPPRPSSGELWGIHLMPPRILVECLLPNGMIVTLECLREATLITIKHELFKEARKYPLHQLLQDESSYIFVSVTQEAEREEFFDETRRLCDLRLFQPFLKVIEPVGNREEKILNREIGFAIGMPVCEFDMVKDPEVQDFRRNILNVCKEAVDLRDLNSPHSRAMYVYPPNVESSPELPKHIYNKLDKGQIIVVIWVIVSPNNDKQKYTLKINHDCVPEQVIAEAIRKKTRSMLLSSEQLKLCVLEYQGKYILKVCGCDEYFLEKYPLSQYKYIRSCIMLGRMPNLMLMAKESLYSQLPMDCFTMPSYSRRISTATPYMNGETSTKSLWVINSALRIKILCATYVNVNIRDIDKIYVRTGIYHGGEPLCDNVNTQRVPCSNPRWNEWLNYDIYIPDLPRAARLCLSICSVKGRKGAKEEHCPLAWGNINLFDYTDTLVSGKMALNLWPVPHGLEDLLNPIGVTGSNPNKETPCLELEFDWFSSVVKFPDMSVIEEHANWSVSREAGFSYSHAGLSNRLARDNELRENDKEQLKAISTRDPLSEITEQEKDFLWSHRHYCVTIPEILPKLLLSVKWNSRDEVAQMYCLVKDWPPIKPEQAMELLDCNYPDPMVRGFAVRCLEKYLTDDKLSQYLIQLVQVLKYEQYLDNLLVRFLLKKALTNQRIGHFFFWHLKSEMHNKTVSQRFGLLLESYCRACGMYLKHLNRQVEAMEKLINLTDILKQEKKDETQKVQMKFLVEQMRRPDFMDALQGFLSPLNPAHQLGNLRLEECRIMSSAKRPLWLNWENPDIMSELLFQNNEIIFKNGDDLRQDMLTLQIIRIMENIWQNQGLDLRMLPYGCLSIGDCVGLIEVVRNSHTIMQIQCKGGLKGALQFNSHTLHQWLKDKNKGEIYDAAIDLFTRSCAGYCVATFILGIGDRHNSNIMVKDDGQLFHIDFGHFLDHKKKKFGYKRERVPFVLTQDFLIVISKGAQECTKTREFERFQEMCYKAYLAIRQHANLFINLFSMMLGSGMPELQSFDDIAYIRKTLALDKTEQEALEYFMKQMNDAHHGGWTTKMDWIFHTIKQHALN

SMILES | pIC50 [1] | IC50 [2] | solubility kinetic at 1 h [3] | logP [4] | IC50 [6] | CLH [7] | CLH [8] | CL [9] | CL [10] | IC50 [5]
CNCC(=O)Nc1ccc(-c2nc(C(C)(C)S(C)(=O)=O)cc([C@@]34CCOC[C@@H]3C4)n2)cc1 | 7.3 | 1.26 µM | 257 µg/mL (≈ 560 µM) | 4.3 | 25.1 µM | – | – | – | – | 0.158 µM
CCNC(=O)Nc1ccc(-c2nccc([C@]34CCOC[C@H]3C4)n2)cc1 | 6.1 | 25.1 µM | 125 µg/mL (≈ 369 µM) | 3.9 | 25.1 µM | – | – | 13.6 mL/min/g | 1.5 mL/min/g | 2 µM
CC(C)(c1cc([C@]23CCOC[C@H]2C3)nc(-c2cccc(O)c2)n1)S(C)(=O)=O | 5.5 | 10 µM | 135 µg/mL (≈ 348 µM) | 4.8 | 15.8 µM | – | – | – | – | 1.26 µM
CCNC(=O)Nc1ccc(-c2nccc(N3CCOC[C@@H]3C)n2)cc1 | 6.1 | 5.01 µM | 136 µg/mL (≈ 398 µM) | 3.4 | 6.31 µM | – | – | 2 mL/min/g | 1.2 mL/min/g | 1.26 µM
CCNC(=O)Nc1ccc(-c2nc(CS(C)(=O)=O)cc([C@]34CCOC[C@H]3C4)n2)cc1 | 7 | 7.94 µM | 96 µg/mL (≈ 223 µM) | 3.6 | > 31.6 µM | – | – | – | – | 0.501 µM
CC(C)(c1cc([C@@]23CCOC[C@@H]2C3)nc(-c2cccc(O)c2)n1)S(C)(=O)=O | < 5.4 | 7.94 µM | 148 µg/mL (≈ 381 µM) | 4.8 | 10 µM | – | – | – | – | 5.01 µM
CCNC(=O)Nc1ccc(-c2nc(C(C)(C)S(C)(=O)=O)cc([C@]34CCOC[C@H]3C4)n2)cc1 | 6.9 | 25.1 µM | 74 µg/mL (≈ 161 µM) | 4.7 | > 31.6 µM | – | – | – | – | 0.0631 µM
CCNC(=O)Nc1ccc(-c2nc(CS(C)(=O)=O)cc([C@@]34CCOC[C@@H]3C4)n2)cc1 | 6.1 | 25.1 µM | 77 µg/mL (≈ 179 µM) | 3.6 | > 31.6 µM | – | – | – | – | 1.58 µM
CCNC(=O)Nc1ccc(-c2nccc([C@@]34CCOC[C@@H]3C4)n2)cc1 | 5.5 | 25.1 µM | 127 µg/mL (≈ 375 µM) | 3.9 | > 31.6 µM | – | – | 16.7 mL/min/g | 1.4 mL/min/g | 3.16 µM
CCNC(=O)Nc1ccc(-c2nc(C(C)(C)S(C)(=O)=O)cc([C@@]34CCOC[C@@H]3C4)n2)cc1 | 6.6 | 15.8 µM | 78 µg/mL (≈ 170 µM) | 4.7 | 25.1 µM | – | – | – | – | 0.158 µM
CNCC(=O)Nc1ccc(-c2nc(CS(C)(=O)=O)cc([C@@]34CCOC[C@@H]3C4)n2)cc1 | 7.1 | 15.8 µM | 167 µg/mL (≈ 388 µM) | 3.1 | > 31.6 µM | – | – | – | – | 1.26 µM
CNCC(=O)Nc1ccc(-c2nc(CS(C)(=O)=O)cc([C@]34CCOC[C@H]3C4)n2)cc1 | 7.4 | > 31.6 µM | 158 µg/mL (≈ 367 µM) | 3.1 | > 31.6 µM | – | – | – | – | 0.794 µM
CS(=O)(=O)Cc1cc([C@]23CCOC[C@H]2C3)nc(-c2cccc(O)c2)n1 | 5.8 | 15.8 µM | 75 µg/mL (≈ 208 µM) | 3.7 | 20 µM | – | – | – | – | 3.16 µM
CNCC(=O)Nc1ccc(-c2nc(C(C)(C)S(C)(=O)=O)cc([C@]34CCOC[C@H]3C4)n2)cc1 | 7.6 | 12.6 µM | 217 µg/mL (≈ 473 µM) | 4.3 | > 31.6 µM | – | – | – | – | 0.1 µM

More lines, main results first:

pIC50 [1] | IC50 [2] | solubility kinetic at 1 h [3] | logP [4] | IC50 [6] | CLH [7] | CLH [8] | CL [9] | CL [10] | SMILES | IC50 [5]
7.1 | 20 µM | 212 µg/mL (≈ 489 µM) | 3.2 | 15.8 µM | – | – | – | – | CCNC(=O)Nc1ccc(-c2nc(CS(C)(=O)=O)cc(N3CCOC[C@@H]3C)n2)cc1 | 0.316 µM
8.4 | – | – | 3.6 | – | 2.8 mL/min/g | 0.9 mL/min/g | 0.8 mL/min/g | 0.9 mL/min/g | C[C@H]1COCCN1c1cc(C(C)(C)S(C)(=O)=O)nc(-c2ccc(NC(=S)NCCO)cc2)n1 | 0.0398 µM
8 | 1.58 µM | 198 µg/mL (≈ 429 µM) | 4.1 | 15.8 µM | – | – | – | – | CNCC(=O)Nc1ccc(-c2nc(N3CCOC[C@@H]3C)cc(C(C)(C)S(C)(=O)=O)n2)cc1 | 0.0501 µM
8.6 | 31.6 µM | 173 µg/mL (≈ 353 µM) | 3.9 | 25.1 µM | 13 mL/min/g | 5.1 mL/min/g | 1.4 mL/min/g | 3.1 mL/min/g | CC(C)(c1cc([C@]23CCOC[C@H]2C3)nc(-c2ccc(NC(=S)NCCO)cc2)n1)S(C)(=O)=O | 0.0316 µM
7.7 | 12.6 µM | 90 µg/mL (≈ 208 µM) | 2.6 | 25.1 µM | – | – | – | – | CNCC(=O)Nc1ccc(-c2nc(CS(C)(=O)=O)cc(N3CCOC[C@@H]3C)n2)cc1 | 0.501 µM
5.7 | 3.16 µM | 121 µg/mL (≈ 309 µM) | 4.4 | 3.16 µM | – | – | – | – | C[C@H]1COCCN1c1cc(C(C)(C)S(C)(=O)=O)nc(-c2cccc(O)c2)n1 | 1.26 µM
8.2 | 25.1 µM | 145 µg/mL (≈ 296 µM) | 3.9 | 7.94 µM | – | – | – | – | CC(C)(c1cc([C@@]23CCOC[C@@H]2C3)nc(-c2ccc(NC(=S)NCCO)cc2)n1)S(C)(=O)=O | 0.0794 µM
7.3 | 7.94 µM | 130 µg/mL (≈ 282 µM) | 4.4 | 7.94 µM | – | – | – | – | CCNC(=O)Nc1ccc(-c2nc(N3CCOC[C@@H]3C)cc(C(C)(C)S(C)(=O)=O)n2)cc1 | 0.0501 µM
